Source: US5736376A, “Recombinant endothelin converting enzyme-2 and its use in ECE inhibitor screening” (Board of Regents, The University of Texas System, priority 1995, dated 1998)
Like-named read-outs stand apart in the source and are kept apart here.

Assays:
ECE-1 [1] = target: T1, ECE-1 (Bos taurus, UniProt P42891); assay: Protease inhibitor assay of ECE-1, solubilized CHO/ECE-1 membranes, big ET-1 conversion, pH 6.8; assay type: biochemical, bovine; conditions: sensitivity to protease inhibitors, Table 2
T1 construct: made in house
T1 sequence (P42891 1-754): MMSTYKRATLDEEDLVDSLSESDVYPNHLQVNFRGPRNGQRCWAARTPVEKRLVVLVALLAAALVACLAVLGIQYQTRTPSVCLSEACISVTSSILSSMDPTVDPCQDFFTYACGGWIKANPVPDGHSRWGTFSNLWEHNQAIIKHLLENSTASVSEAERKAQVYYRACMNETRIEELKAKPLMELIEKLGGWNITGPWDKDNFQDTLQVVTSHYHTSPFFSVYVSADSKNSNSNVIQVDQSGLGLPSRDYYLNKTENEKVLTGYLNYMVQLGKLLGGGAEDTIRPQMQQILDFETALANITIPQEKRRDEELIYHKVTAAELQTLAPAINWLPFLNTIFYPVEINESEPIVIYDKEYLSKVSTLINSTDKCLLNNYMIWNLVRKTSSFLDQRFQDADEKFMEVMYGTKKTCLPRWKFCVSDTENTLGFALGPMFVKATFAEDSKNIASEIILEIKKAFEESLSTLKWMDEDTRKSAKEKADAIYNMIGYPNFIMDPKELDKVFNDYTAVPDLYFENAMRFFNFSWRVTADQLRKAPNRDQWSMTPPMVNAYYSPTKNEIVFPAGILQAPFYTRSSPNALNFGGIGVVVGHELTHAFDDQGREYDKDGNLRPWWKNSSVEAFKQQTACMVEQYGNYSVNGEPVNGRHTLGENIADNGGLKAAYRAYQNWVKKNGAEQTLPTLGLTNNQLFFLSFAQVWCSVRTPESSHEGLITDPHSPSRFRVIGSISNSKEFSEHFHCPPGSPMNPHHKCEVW
Method: Solubilized crude membranes were prepared in parallel from CHO/ECE-2 and CHO/ECE-1 cells as described (Xu et al., 1994). For protease inhibitor studies, membranes were prepared without protease inhibitors. Standard reaction mixtures for the ECE-2 assay (50 μl) contained 0.1M 2-[N-morpholino]ethanesulfonic acid (MES) buffer (pH 5.5), 0.5M NaCl, 0.1 μM human big ET-1 and an enzyme fraction. ECE-1 assay reactions contained 0.1M phosphate buffer (pH 6.8) instead of the MES buffer. For the pH profiling and isopeptide selectivity studies, the buffer solution (0.1M) or the substrate (0.1 μM) was substituted as designated. For the inhibitor studies, the reactions were preincubated at 37° C. with protease inhibitor or vehicle for 15 min. Reactions were started by the addition of substrate, and incubated at 37° C. for 30 min in siliconized 0.5-ml microcentrifuge tubes. […] The mixture was then directly assayed for mature ET-1 as described (Suzuki et al., 1989). Duplicate assay wells were used for each enzyme reaction. […] Protein concentrations were determined by the Bradford method (Bio-Rad) using IgG as standard.

ECE-2 [2] = target: T2, ECE-2 (Bos taurus, UniProt P0DPE2); assay: Protease inhibitor assay of ECE-2, solubilized CHO/ECE-2 membranes, big ET-1 conversion, pH 5.5; assay type: biochemical, bovine; conditions: in vitro (test tube), pH 5.5
T2 construct: solubilized crude membranes or live cells
Method: In all subsequent studies, ECE-2 assays were performed at pH 5.5.
Solubilized crude membranes were prepared in parallel from CHO/ECE-2 and CHO/ECE-1 cells as described (Xu et al., 1994). For protease inhibitor studies, membranes were prepared without protease inhibitors. Standard reaction mixtures for the ECE-2 assay (50 μl) contained 0.1M 2-[N-morpholino]ethanesulfonic acid (MES) buffer (pH 5.5), 0.5M NaCl, 0.1 μM human big ET-1 and an enzyme fraction. […] For the inhibitor studies, the reactions were preincubated at 37° C. with protease inhibitor or vehicle for 15 min. Reactions were started by the addition of substrate, and incubated at 37° C. for 30 min in siliconized 0.5-ml microcentrifuge tubes. […] The mixture was then directly assayed for mature ET-1 as described (Suzuki et al., 1989). Duplicate assay wells were used for each enzyme reaction.

ECE-1 [3] = target: T1, ECE-1; conditions: high concentrations; Xu et al., 1994; cited from earlier work
big endothelins = conditions: whole animal preparations and isolated perfused tissues; cited from earlier work
[4] = tested on: this family of metalloproteases; conditions: Opgenorth et al., 1992; cited from earlier work
ECE-2 [5] = target: T2, ECE-2; assay: Double-transfection live cell assay: mature ET-1 secretion by CHO/ECE-2 cells transfected with preproET-1 cDNA; assay type: cell-based, bovine; conditions: production of mature ET-1; 12 h; ECE-2-preproET-1 double transfected cells; read-out: apparent IC50, live cell assay, CHO/ECE-2
Method: Production of mature ET-1 by CHO/ECE-2 cells transiently transfected with preproET-1 cDNA: Cleavage of endogenously produced big ET-1. Doubly transfected cells were cultured for 12 h in the absence or presence of the designated concentrations of ECE inhibitors, and mature ET-1 in the conditioned medium was determined. Negative control studies with parental CHO cells are shown by dashed lines.
CHO/ECE-2 cells and untransfected CHO cells were transiently transfected in parallel with a preproET-1 construct, and mature ET-1 secreted from these cells into the medium was determined by EIA.
CHO-K1 cells were cultured as described (Xu et al., 1994). Since many batches of tissue culture-grade trypsin preparations contained high levels of metalloprotease contaminants with an ECE-like activity, a highly purified crystallized preparation of trypsin (Sigma, Catalog No. T7418) was dissolved in phosphate-buffered saline at 0.013% (w/v) and used for all trypsinization procedures. […] Twelve hours after the transient transfection, cells were refed with fresh medium with or without ECE inhibitors. The medium was conditioned for an additional 12 h and directly subjected to enzyme immunoassay (EIA) for mature ET-1 (Suzuki et al., 1989).

[6] = tested on: cultured endothelial cells; conditions: cited from earlier work

T2 sequence (P0DPE2 97-883): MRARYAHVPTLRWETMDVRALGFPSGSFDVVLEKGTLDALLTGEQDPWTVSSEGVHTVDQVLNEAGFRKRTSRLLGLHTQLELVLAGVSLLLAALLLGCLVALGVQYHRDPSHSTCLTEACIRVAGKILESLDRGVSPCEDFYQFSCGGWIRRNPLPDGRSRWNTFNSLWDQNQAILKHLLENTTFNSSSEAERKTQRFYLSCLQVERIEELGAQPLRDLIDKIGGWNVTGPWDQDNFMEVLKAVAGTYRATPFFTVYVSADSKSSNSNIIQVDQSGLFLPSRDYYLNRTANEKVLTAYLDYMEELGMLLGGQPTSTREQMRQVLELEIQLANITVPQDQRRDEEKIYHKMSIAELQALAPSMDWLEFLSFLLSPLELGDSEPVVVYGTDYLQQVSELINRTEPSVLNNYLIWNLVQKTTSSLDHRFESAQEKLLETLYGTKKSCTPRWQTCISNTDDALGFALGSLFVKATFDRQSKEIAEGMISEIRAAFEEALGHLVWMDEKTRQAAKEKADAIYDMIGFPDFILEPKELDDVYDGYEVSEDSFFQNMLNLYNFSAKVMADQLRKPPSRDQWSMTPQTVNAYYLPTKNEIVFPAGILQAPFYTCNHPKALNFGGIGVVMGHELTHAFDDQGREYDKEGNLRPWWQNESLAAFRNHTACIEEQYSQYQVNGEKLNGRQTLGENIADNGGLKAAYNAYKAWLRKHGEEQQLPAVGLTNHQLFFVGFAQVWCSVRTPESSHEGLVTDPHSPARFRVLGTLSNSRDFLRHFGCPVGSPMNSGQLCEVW

## CC(C)C[C@H](NP(=O)(O)O[C@@H]1O[C@@H](C)[C@H](O)[C@@H](O)[C@H]1O)C(=O)N[C@@H](Cc1c[nH]c2ccccc12)C(=O)O [Phosphoramidon]
ECE-1 [1]
  inhibition of ECE-1: inhibited
ECE-2 [2]
  IC50: 4 nM
ECE-1 [3]
  inhibition of big ET-1 conversion in ECE-1/preproET-1 doubly transfected cells: capable of inhibiting the conversion of big ET-1
Big endothelins
  inhibition of vasopressor actions of exogenous big endothelins: inhibited
[4]
  type of inhibition: competitive inhibitor
ECE-2 [5]
  IC50: ~20 µM
[6]
  inhibition of secretion of mature ET-1 / processing of endogenous big ET-1 (words): inhibit the secretion of mature ET-1
[6]; listed as phosphoramidon
  inhibition of secretion of mature ET-1 / processing of endogenous big ET-1 (words): inhibited
